Data as given in PubChem BioAssay (NCI).
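GI50 = concentration required for 50% inhibition of growth. Definition used: TGI = concentration required for complete inhibition of growth.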

How the values were obtained:
Assay in all cases: NCI anticancer screen, dose series, 384-well format
SK-OV-3 ovarian = test system: SK-OV-3 ovarian
HL-60(TB) leukemia = test system: HL-60(TB) leukemia
MDA-MB-231 breast = test system: MDA-MB-231 breast
SNB-75 CNS = test system: SNB-75 CNS
HS 578T breast = test system: HS 578T breast
MOLT-4 leukemia = test system: MOLT-4 leukemia
LOX IMVI melanoma = test system: LOX IMVI melanoma
HCT-116 colon = test system: HCT-116 colon
PC-3 prostate = test system: PC-3 prostate
MCF7 breast = test system: MCF7 breast
MDA-MB-468 breast = test system: MDA-MB-468 breast
SW-620 colon = test system: SW-620 colon
NCI/ADR-RES ovarian = test system: NCI/ADR-RES ovarian
CAKI-1 renal = test system: CAKI-1 renal
NCI-H460 NSCLC = test system: NCI-H460 NSCLC
EKVX NSCLC = test system: EKVX NSCLC
MALME-3M melanoma = test system: MALME-3M melanoma
RPMI-8226 leukemia = test system: RPMI-8226 leukemia
SF-268 CNS = test system: SF-268 CNS
SF-539 CNS = test system: SF-539 CNS
IGROV1 ovarian = test system: IGROV1 ovarian
HCT-15 colon = test system: HCT-15 colon
SK-MEL-5 melanoma = test system: SK-MEL-5 melanoma
SR leukemia = test system: SR leukemia
OVCAR-5 ovarian = test system: OVCAR-5 ovarian
MDA-MB-435 melanoma = test system: MDA-MB-435 melanoma
HCC-2998 colon = test system: HCC-2998 colon
HT29 colon = test system: HT29 colon
A549 NSCLC = test system: A549 NSCLC
A498 renal = test system: A498 renal
KM12 colon = test system: KM12 colon
U251 glioblastoma = test system: U251 glioblastoma
SK-MEL-28 melanoma = test system: SK-MEL-28 melanoma
BT-549 breast = test system: BT-549 breast
NCI-H322M lung = test system: NCI-H322M lung
NCI-H522 lung = test system: NCI-H522 lung
OVCAR-3 ovarian = test system: OVCAR-3 ovarian
K-562 leukemia = test system: K-562 leukemia
NCI-H226 lung = test system: NCI-H226 lung
RXF 393 renal = test system: RXF 393 renal

Question: Which GI50 (SK-OV-3 ovarian) does the source give for `Cc1c(F)c(N)c2c(=O)cc(-c3ccc(N)c(F)c3)oc2c1F` here?
Answer: Its GI50 is 29.3 µM.

Question: And the TGI (SK-OV-3 ovarian)?
Answer: Its TGI is greater than 100 µM.

Question: What about the GI50 (HL-60(TB) leukemia) of the same compound?
Answer: The GI50 was 157 nM.

Question: What about the TGI (HL-60(TB) leukemia) of the same compound?
Answer: Its TGI is greater than 100 µM.

Question: What about the GI50 (MDA-MB-231 breast) of the same compound?
Answer: The GI50 was 26.7 µM.

Question: What about the TGI (MDA-MB-231 breast) of the same compound?
Answer: The TGI was greater than 100 µM.

Question: What about the GI50 (SNB-75 CNS) of the same compound?
Answer: The GI50 was 10.8 µM.

Question: What about the TGI (SNB-75 CNS) of the same compound?
Answer: The TGI was 25.2 µM.

Question: And the GI50 (HS 578T breast)?
Answer: The GI50 was 10.7 µM.

Question: And the TGI (HS 578T breast)?
Answer: Its TGI is 29.5 µM.

Question: And the GI50 (MOLT-4 leukemia)?
Answer: Its GI50 is 85.1 µM.

Question: What about the TGI (MOLT-4 leukemia) of the same compound?
Answer: The TGI was greater than 100 µM.

Question: And the GI50 (LOX IMVI melanoma)?
Answer: Its GI50 is greater than 100 µM.

Question: And the TGI (LOX IMVI melanoma)?
Answer: The TGI was greater than 100 µM.

Question: And the GI50 (HCT-116 colon)?
Answer: Its GI50 is 28 µM.

Question: What about the TGI (HCT-116 colon) of the same compound?
Answer: Its TGI is greater than 100 µM.

Question: What about the GI50 (PC-3 prostate) of the same compound?
Answer: The GI50 was greater than 100 µM.

Question: And the TGI (PC-3 prostate)?
Answer: Its TGI is greater than 100 µM.

Question: And the GI50 (MCF7 breast)?
Answer: Its GI50 is less than 10 nM.

Question: And the TGI (MCF7 breast)?
Answer: Its TGI is 33.8 nM.

Question: And the GI50 (MDA-MB-468 breast)?
Answer: Its GI50 is less than 10 nM.

Question: And the GI50 (SW-620 colon)?
Answer: Its GI50 is greater than 100 µM.

Question: What about the TGI (SW-620 colon) of the same compound?
Answer: Its TGI is greater than 100 µM.

Question: What about the GI50 (NCI/ADR-RES ovarian) of the same compound?
Answer: Its GI50 is 14.1 µM.

Question: And the TGI (NCI/ADR-RES ovarian)?
Answer: The TGI was greater than 100 µM.

Question: And the GI50 (CAKI-1 renal)?
Answer: Its GI50 is less than 10 nM.

Question: What about the TGI (CAKI-1 renal) of the same compound?
Answer: The TGI was greater than 100 µM.

Question: What about the GI50 (NCI-H460 NSCLC) of the same compound?
Answer: Its GI50 is less than 10 nM.

Question: What about the TGI (NCI-H460 NSCLC) of the same compound?
Answer: The TGI was greater than 100 µM.

Question: What about the GI50 (EKVX NSCLC) of the same compound?
Answer: Its GI50 is 2980 nM.

Question: And the TGI (EKVX NSCLC)?
Answer: Its TGI is greater than 100 µM.

Question: What about the GI50 (MALME-3M melanoma) of the same compound?
Answer: The GI50 was 28.6 µM.

Question: What about the TGI (MALME-3M melanoma) of the same compound?
Answer: The TGI was 86.5 µM.

Question: What about the GI50 (RPMI-8226 leukemia) of the same compound?
Answer: The GI50 was 14.2 µM.

Question: And the TGI (RPMI-8226 leukemia)?
Answer: The TGI was greater than 100 µM.

Question: And the GI50 (SF-268 CNS)?
Answer: Its GI50 is 23.2 µM.

Question: And the TGI (SF-268 CNS)?
Answer: Its TGI is 97.6 µM.

Question: What about the GI50 (SF-539 CNS) of the same compound?
Answer: The GI50 was 28 µM.

Question: And the TGI (SF-539 CNS)?
Answer: Its TGI is greater than 100 µM.

Question: What about the GI50 (IGROV1 ovarian) of the same compound?
Answer: The GI50 was less than 10 nM.

Question: What about the GI50 (HCT-15 colon) of the same compound?
Answer: Its GI50 is greater than 100 µM.

Question: What about the TGI (HCT-15 colon) of the same compound?
Answer: Its TGI is greater than 100 µM.

Question: What about the GI50 (SK-MEL-5 melanoma) of the same compound?
Answer: The GI50 was less than 10 nM.

Question: What about the TGI (SK-MEL-5 melanoma) of the same compound?
Answer: Its TGI is greater than 100 µM.

Question: And the GI50 (SR leukemia)?
Answer: The GI50 was 4.12 µM.

Question: What about the TGI (SR leukemia) of the same compound?
Answer: Its TGI is greater than 100 µM.

Question: And the GI50 (OVCAR-5 ovarian)?
Answer: The GI50 was less than 10 nM.

Question: What about the GI50 (MDA-MB-435 melanoma) of the same compound?
Answer: The GI50 was 34.9 µM.

Question: And the TGI (MDA-MB-435 melanoma)?
Answer: Its TGI is greater than 100 µM.

Question: And the GI50 (HCC-2998 colon)?
Answer: The GI50 was less than 10 nM.

Question: What about the TGI (HCC-2998 colon) of the same compound?
Answer: Its TGI is greater than 100 µM.

Question: What about the GI50 (HT29 colon) of the same compound?
Answer: The GI50 was greater than 100 µM.

Question: What about the TGI (HT29 colon) of the same compound?
Answer: The TGI was greater than 100 µM.

Question: What about the GI50 (A549 NSCLC) of the same compound?
Answer: The GI50 was 29.9 µM.

Question: What about the TGI (A549 NSCLC) of the same compound?
Answer: Its TGI is greater than 100 µM.

Question: And the GI50 (A498 renal)?
Answer: Its GI50 is less than 10 nM.

Question: And the TGI (A498 renal)?
Answer: The TGI was 130 nM.

Question: What about the GI50 (KM12 colon) of the same compound?
Answer: The GI50 was 93 µM.

Question: And the TGI (KM12 colon)?
Answer: Its TGI is greater than 100 µM.

Question: And the GI50 (U251 glioblastoma)?
Answer: The GI50 was 18 µM.

Question: And the TGI (U251 glioblastoma)?
Answer: The TGI was greater than 100 µM.

Question: And the GI50 (SK-MEL-28 melanoma)?
Answer: The GI50 was greater than 100 µM.

Question: And the TGI (SK-MEL-28 melanoma)?
Answer: The TGI was greater than 100 µM.

Question: What about the GI50 (BT-549 breast) of the same compound?
Answer: Its GI50 is 16.4 µM.

Question: What about the TGI (BT-549 breast) of the same compound?
Answer: The TGI was 40.4 µM.

Question: And the GI50 (NCI-H322M lung)?
Answer: Its GI50 is 24.3 µM.

Question: What about the TGI (NCI-H322M lung) of the same compound?
Answer: Its TGI is greater than 100 µM.

Question: What about the GI50 (NCI-H522 lung) of the same compound?
Answer: The GI50 was 9.4 µM.

Question: And the TGI (NCI-H522 lung)?
Answer: The TGI was 43.1 µM.

Question: And the GI50 (OVCAR-3 ovarian)?
Answer: Its GI50 is 25.1 nM.

Question: And the TGI (OVCAR-3 ovarian)?
Answer: Its TGI is 37.9 µM.

Question: And the GI50 (K-562 leukemia)?
Answer: The GI50 was 1750 nM.

Question: What about the GI50 (NCI-H226 lung) of the same compound?
Answer: The GI50 was less than 10 nM.

Question: What about the GI50 (RXF 393 renal) of the same compound?
Answer: Its GI50 is 10.5 µM.

Question: And the TGI (RXF 393 renal)?
Answer: Its TGI is 31.5 µM.
